According to paper PMC6085462 (Frontiers in Microbiology, 2018):
Entries after “also recorded” stand apart in the source; their conditions may differ. Where no end group is shown, it is not given here.

Key:
[1] = test system: pancreatin; assay: pancreatin alone in the intestinal electrolyte solution; details: porcine, 37°C, up to 120 min
[2] = test system: elastase type IIA from porcine pancreas; assay: elastase alone in the intestinal electrolyte solution; details: 37°C, up to 120 min
[3] = test system: Pancreatin from porcine pancreas; assay: pancreatin alone at a final concentration of 8 mg/mL in the intestinal electrolyte solution; details: 37°C, up to 120 min
[4] = test system: elastase type IIA from porcine pancreas (EC 3.4.21.36); assay: elastase alone at a final concentration of 8 mg/mL in the intestinal electrolyte solution; details: 37°C, up to 120 min
[5] = test system: α-chymotrypsin from bovine pancreas (EC 3.4.21.1); assay: α-chymotrypsin alone at a final concentration of 8 mg/mL in the intestinal electrolyte solution; details: 37°C, up to 120 min
[6] = test system: pancreatin; trypsin; assay: static duodenal model: 8% pancreatin, 4% porcine bile, 2 mg/mL trypsin in intestinal electrolyte solution, pH 6.3; details: bovine trypsin, 37°C, up to 120 min
[7] = test system: pancreatin; trypsin; assay: Duodenal solution: 8% pancreatin, 4% porcine bile solutions and 2 mg/mL trypsin solution in intestinal electrolyte solution adjusted to pH 6.3; details: 37°C, up to 120 min
[8] = test system: pepsin; lipase; assay: TIM-1 gastric compartment: simulated gastric secretions containing pepsin (0.19 mg/mL) or lipase (0.25 mg/mL) in an electrolyte solution, pH 4.5 decreased gradually to 1.7; details: up to 60 min
[9] = ref Kheadr et al., 2010; cited from earlier work
From the text: A bacteriocin is most often defined as a peptide of molecular mass mostly <10,000 Da that is inhibitory to species closely related to the producer species. Bacteriocins differ from antibiotics in being synthesized by translation of an mRNA transcript, having generally a narrow spectrum of activity and being effective at concentrations as low as nanomolar ([Nes, 2011]). Some bacteriocins may undergo post-translational modifications and as such belong to the family of ribosomally-synthesized and post-translationally-modified peptides (RiPPs) ([Arnison et al., 2013]) Their potential as antimicrob ...

| Substance | cleaved bond [1] | cleaved bond [2] | cleaved bond [3] | cleaved bond [4] | cleaved bond [5] | cleaved bond [6] | cleaved bond [7] | cleaved bond [8] | Antibacterial activity in the small intestine under gastrointestinal conditions [9] |
| --- | --- | --- | --- | --- | --- | --- | --- | --- | --- |
| GGAGHVPEYFVGIGTPISFYG | F10-V11, 0 min; also recorded: Y9-F10, 0 min; also recorded: I13-G14, 0 min | F10-V11, 0 min; also recorded: I13-G14, 0 min; also recorded: Y9-F10, 0 min | V11-G12, 0 min; also recorded: Y9-F10, major, 0 min; also recorded: F10-V11, 0 min; also recorded: I13-G14, 0 min | F10-V11, 0 min; also recorded: I13-G14, major, 0 min; also recorded: Y9-F10, 0 min; also recorded: V11-G12, 0 min | Y9-F10, major, 0 min; also recorded: F10-V11, 0 min | I13-G14, 60 min; also recorded: F10-V11, 60 min; also recorded: Y9-F10, 60 min; also recorded: Y9-F10, 120 min; also recorded: V11-G12, 120 min | Y9-F10, first_seen, 0 min; also recorded: F10-V11, first_seen, 0 min; also recorded: I13-G14, first_seen, 0 min; also recorded: G12-I13, 60 min; also recorded: V11-G12, 60 min | G14-T15, 60 min |  |
| pediocin PA-1 (KYYGNGVTCGKHSCSVDWGKATTCIINNGAMAWATGGHQGNHKC; ends and bridges not checked; cysteine pairing not given here; UniProt P29430 19-62, looked up) [class IIa bacteriocin] |  |  |  |  |  |  |  |  | losing completely its antibacterial activity |
